Results published in patent US20050090471A1, “Inhibitors of cyclin-dependent kinases, compositions and uses related thereto” (GPC Biotech, Inc, priority 2001, published 2005).
Like-named read-outs stand apart in the source and are kept apart here.

How the values were obtained:
ADR-res = test: NCI panel (SRB assay), ADR-res cell line; type: cell-based, human; details: 48 hours incubation with compound, unit not given
Text: (§1) The evaluation of compounds at the National Cancer Institute in their panel of 60 cell lines provides a wealth of information regarding efficacy in a wide range of tumor types and genetic backgrounds. Included within this panel are cell lines derived from leukemia, melanoma and cancers of the lung, colon, brain, ovary, breast, prostate and kidney. Use of this panel provides a measure of the efficacy of compounds in cells with alterations in many genes that are associated with neoplastic transformation including p53 and Her2/Neu as well as those involved in metabolism and those which confer multi-drug resistance. The data generated in these cell lines with the protocol described below can be used to evaluate the activity of compounds.
(§2) Cells were grown in RPMI-1640 10% FCS and plated in 96 well micro-titer plates at densities ranging from 5,000 to 40,000 cells/well. The plates were incubated for 24 hours at 37° C., 5% CO2 for 24 hours. Media containing twice the desired final concentration of the compound (5 doses spanning 4 logs) was prepared and 100 μl was added to each well containing 100 μl media plus cells to yield the desired final concentration. The plates were then incubated for an additional 48 hours.
(§3) The effect of the compound on cellular viability was determined with the Sulforhodamine B (SRB) assay which measures total protein. Cells were fixed with cold TCA to a fmal concentration of 10% and incubated at 4° C. for 60 minutes. The supernatant was discarded and the plates were washed five times with water and air-dried. SRB solution at […] in 1% acetic acid was added to each well and the plates were incubated for 10 minutes at room temperature. The plates were washed five times with 1% acetic acid and air-dried. The bound stain was solubilized with 10 mM trizma base and the absorbance was read on a plate reader at […].

HCT-116 = test: Calcein AM viability assay, HCT-116; type: cell-based, human; details: 72-hours incubation
Procedure: (§4) The potency of Cdk inhibitors, as measured by loss of cellular viability, was determined with the Calcein AM assay (Molecular Probes). Calcein AM is a substrate of intracellular esterases, which is cleaved only in viable cells to generate a fluorescent product that can be quantified with a fluorescent plate reader. The fluorescent signal is proportional to the number of viable cells, and thus loss of signal in response to the exposure of cells to Cdk inhibitors correlates with a loss of viability. This assay distinguishes cell cycle arrest from loss of viability and is thus well suited for the evaluation of Cdk inhibitors.
(§5) Cellular IC50's were determined in the human colorectal carcinoma cell line, HCT-116, and the normal human fibroblast, IMR90. Protein adjusted IC50's were also determined in HCT-116. Results are presented in Table 3 below (HCT-116 (viability/protein adjusted) and IMR-90).
(§6) HCT-116 or IMR90 cells were recovered from sub-confluent plates by trypsinization and 1,000 or 4,000 cells, respectively, were plated in 24-well dishes and incubated overnight at 37° C., 5% CO2. HCT-116 cells were cultured in RPMI-1640, 10% FCS, and IMR90 cells were cultured in Minimum Essential Medium-alpha, 10% FCS. After overnight incubation to allow.adlierence, the media was aspirated from each well and replaced with media containing a test compound at a concentration from 0 to 250 nM, spanning a total of 7 doses. The plates were returned to the incubator and cultured for an additional 3 days. […] After 72-hours incubation with the test compound, the cells were washed twice with 1×PBS, talking special care to remove all residual buffer.
(§7) A 5 μM Calcein AM. solution was prepared by dissolving a 50 μg aliquot of Calcein (Molecular Probes catalog # C3100) in 50 μl DMSO. After the Calcein had completely dissolved (10 minutes at room temperature), it was diluted into 10 ml PBS. Calcein/PBS (0.5 ml) was added to each well. The plates were incubated for 75 minutes at 37° C. (protected from light) and the fluorescent signal was read on a fluorescent plate reader (excitation 485/20 and emission 530/25).

HCT-116 cells [1] = test: Clonogenic survival assay with HCT-116 cells; type: cell-based; details: Homo sapiens
Procedure: This assay was used to determine the concentration of a compound that results irreversible loss of viability after a specified period of exposure.
Media (RPMI-1640, 10% FCS, pen/strep) was pre-warnied to 37° C. in a water bath. Cells were incubated and grown at 37° C., 5% CO2. Cells were recovered by trypsinization from sub-confluent plates and counted using a hemocytometer. 1×10^4 cells were plated in 25 mls of media in a 15 cm tissue culture dish. 14 plates were set up for each test compound, and were incubated overnight at 37° C. The compound was diluted into media at 7 concentrations and the media on the cells was replaced with that containing the test compound. Two plates were set up for each concentration of the compound to be tested, as well as two control plates without compound. […] Colonies were stained with crystal violet solution (0.4% crystal violet, 20 % ethanol) for 5 minutes, washed twice with distilled water, and counted.

[2] = system: NCI panel of 60 cell lines; test: NCI panel of human tumor cell lines (SRB assay), MG-MID; type: cell-based; details: 48 hours incubation with compound
Text: as §1, §2, §3

HCT-116 cells [3] = test: BrdU incorporation into DNA (flow cytometry); type: cell-based, human; parameters: unit not given here; details: inhibition of BrdU incorporation, unit not given; for BrdU 72: analysis at 72 hours; for BrdU 24: analysis at 24 hours; for BrdU 48: analysis at 48 hours
Procedure: This method measured the percentage of cells that incorporated the nucleotide analog, BrdU, into newly synthesized DNA as cells progressed through the S phase of the cell cycle. The inhibition of BrdU incorporation was used as a measure of a Cdlc inhibitor's effect on S phase progression and DNA replication.
3 sets of HCT-116 cells (100,000 cells/set) were plated in T25 flasks and incubated with a test compound as above. Analysis was done at 24, 48, and 72 hours. BrdU was added to each T-25 flask from a stock of 10 mg/ml to a final concentration of 10 μM and the cells were incubated for an additional 16-18 hours at 37° C. The cells were then prepared for flow cytometric analysis according to manufacturer's protocol (BrdU Flow kit, BD-Pharmingen catalogue # 2354KK) as follows:
Cells were harvested (adherent and floating) from the T25 flasks directly into Falcon 12×75 flow cytometric tubes as above followed by fixation and permeabilization with the addition of 100 μl Cytofix/Cytoperm buffer (30 minutes, room temperature). The cells were then washed with 1 ml of Perm Wash buffer and the cell pellets were resuspended in 100 μl Cytoperm Plus buffer and incubated on ice for 10 minutes. The cells were then washed again with 1 ml of Perm Wash buffer and the fixation was repeated in 100 μl of Cytofix/Cyto Perm buffer for 10 minutes at room temperature. The cells were then washed with 1 ml of Perm Wash buffer. The cells were next treated for one hour at 37° C. with 100 μl DNase to expose incorporated BrdU followed by another wash step with 1 ml of Perm Wash buffer. […] Cells were protected from light and incubated at room temperature for 20-30 minutes. Following the incubation, the cells were washed with 1 ml of Perrn Wash buffer, resuspended in 300 μl of 2% FBS in PBS, and analyzed on the flow cytometer.

IMR90 = test: Calcein AM viability assay, IMR90; type: cell-based; details: IMR-90, normal human fibroblast, 72-hours incubation
Procedure: as §4, §5, §6, §7

arrested HCT-116 cells = test: Arrested cell assay (serum starvation), HCT-116; type: cell-based, human; parameters: unit not given here; details: serum-starved arrested cells; unit not given
Procedure: (§8) Cyclin-dependent kinase (Cdk) activity is required to promote the progression of cells through distinct phases of the cell division cycle. The proliferation of normal, non-transformed, cells in culture requires the presence of growth factors, the removal of which, through serum deprivation, leads to a loss of Cdlc activity and consequent exit from the cell cycle as cells enter the quiescent phase, Go.
HCT-116 cells were plated in triplicate for each compound concentration to be tested in RPMI 1640 media containing 10% fetal calf serum at a density of either 200 or 2,000 cells per well in 24 well dishes, and incubated overnight at 37° C., 5% CO2. The media from the plate containing 2,000 cells per well was removed, cells were washed once with serum free media and 1 ml of serum free media was placed on cells. Tle plates containing cells both in the presence and absence of serum were incubated for 6 additional days.
(§9) To ensure that the cells had indeed exited the cell cyde upon serum withdrawal, the percentage of BrdU positive cells, indicative of those progressing through S phase, was determined in each experiment. For the purpose of this experiment, cellular viability was evaluated simultaneously with the use of SNARF-1, a fluorescent substrate of intracellular esterases which are only active in viable cells. Together, the evaluation of BrdU incorporation and SNARF-1 cleavage by flow cytometry provided an assessment of the viability of arrested cells on a single cell basis. For this analysis, the cells were stained with SNARF-1 as follows and then prepared for determination of BrdU incorporation as described above.
(§10) HCT-116 and IMR90 cells were plated at the density described below in T25 flasks in serum-containing media (RPMI-1640 or MEM-a with 10% FCS, respectively). After 24 hours of growth, the media was removed and, after washing the cells, replaced with serum-free media. • HCT-116+FCS 5,000 cells • HCT-116−FCS 100,000 cells • IMR90+FCS 100,000 cells • IMR90−FCS 200,000 cells
(§11) The IMR90 cells were grown for an additional 3 days and the HCT-116 cells were grown for an additional 6 days before pulsing with BrdU. A 50 μg aliquot of SNARF-1 (Molecular Probes catalog #C1272) was dissolved in 50 μl DMSO at room temperature for 10 minutes and then diluted into 10 ml PBS. The SNARF-1 was further diluted 1:64,000 before 200 μl was added to each tube of cells which had been cultured in the presence or absence of serum and pulsed with BrdU for 20 hours. The cells were incubated at 37° C. for 30 minutes and then washed with 3 ml of PBS.
(§12) These cells were then fixed and prepared for the measurement of BrdU incorporation as described above. The percentage of viable (FL-2) and BrdU positive (FL-1) cells was determined on a FACScan flow cytometer.

arrested IMR90 cells = test: Arrested cell assay (serum starvation), IMR90; type: cell-based, human; parameters: unit not given here; details: serum-starved arrested cells; unit not given
Procedure: as §8
IMR90 cells were plated in triplicate for each compound concentration to be tested in MEM-α media containing 10% fetal calf serum at a density of either 2,000 or 20,000 cells per well in 24-well dishes and incubated overnight at 37° C., 5% CO2. The media was removed from the 20,000 cell-per-well dish, cells were washed once with serum-free media, and serum-fiee media was placed on cells. The plates containing cells both in the presence and absence of serum were incubated for 3 additional days.
as §9, §10, §11, §12

[4] = Homo sapiens, RPMI-1640 10% FCS, read-out: HCT-116 IC50 viability
[5] = 24 h exposure, read-out: HCT-116 IC50 clonogenic 24 h
[6] = plus 1 mg/ml alpha acidic glycoprotein and 45 mg/ml human serum albumin, read-out: HCT-116 IC50 protein adjusted

Row | Compound | NCI panel ADR-res (ADR-res) | IC50 (HCT-116; [4]) | IC50 (HCT-116 cells [1]; 48 h exposure, read-out: HCT-116 IC50 clonogenic 48 h) | IC50 (HCT-116 cells [1]; 72 h exposure, read-out: HCT-116 IC50 clonogenic 72 h) | NCI panel MG-MID [2] | BrdU 72 (HCT-116 cells [3]) | IC50 (IMR90) | IC50 (HCT-116 cells [1]; [5]) | Arrested cell HCT (arrested HCT-116 cells) | Arrested cell IMR90 (arrested IMR90 cells) | BrdU 24 (HCT-116 cells [3]) | BrdU 48 (HCT-116 cells [3]) | IC50 (HCT-116; [6])
1 | CC(C)c1nn(-c2c(Cl)cc(Cl)cc2Cl)c2nc(Cc3ccc(OCCN4CCOCC4)cc3)[nH]c(=O)c12.Cl [A] | <1 | < 100 nM | < 100 nM | < 100 nM | <0.1 µM | <0.1 | < 100 nM | – | – | – | – | – | –
2 | Cc1cc(-c2[nH]nc3c2C(=O)c2c(NC(=O)NN4CCN(C)CC4)cccc2-3)ccc1OCCN1CCCC1 [Compound P] | – | < 10 nM | – | – | – | – | < 100 nM | < 100 nM | – | – | – | – | –
3 | CC(C)c1nn(-c2c(Cl)cc(Cl)cc2Cl)c2nc(Cc3ccc(NS(=O)(=O)CCCN4CCOCC4)cc3)[nH]c(=O)c12.Cl [D] | – | – | – | – | – | <0.1 | < 10 nM | – | <0.01 | >1.0 | <0.1 | <0.1 | –
4 | Cc1cc(OCCN2CCCC2)ccc1-c1[nH]nc2c1C(=O)c1c(NC(=O)NN3CCN(C)CC3)cccc1-2.Cl.Cl.Cl [L] | >10 | – | – | – | >10 µM | <0.1 | > 100 nM | – | – | – | <0.1 | <0.1 | < 1000 nM
5 | CN1CCN(NC(=O)Nc2cccc3c2C(=O)c2c-3n[nH]c2-c2ccc(OCCN3CCC[C@H]3CO)cc2)CC1.Cl.Cl.Cl [M] | – | – | – | – | – | <0.1 | < 100 nM | – | <0.1 | >1.0 | <0.1 | <0.1 | < 1000 nM
6 | CN1CCN(NC(=O)Nc2cccc3c2C(=O)c2c-3n[nH]c2-c2ccc(OCCN(CCO)CCO)cc2)CC1 [N] | – | < 1000 nM | – | – | – | – | > 100 nM | – | – | – | – | – | < 1000 nM
7 | CN1CCN(NC(=O)Nc2cccc3c2C(=O)c2c-3n[nH]c2-c2ccc(OCCN3CC[C@H](O)C3)cc2)CC1.Cl.Cl.Cl [O] | – | – | – | – | – | <1 | < 100 nM | < 10 nM | <0.1 | >0.1 | <0.1 | <1 | –
